# Patent US20130252950A1, “TARGETING MTOR SUBSTRATES IN TREATING PROLIFERATIVE DISEASES” (President and Fellows of Harvard College, priority 2010, published 2013)
# Several values for one entry are separate records, joined by “and”; a condition that tells them apart may be missing. Identical values can stand only once.
# Test system: TSC2−/− MEFs
# Experiment: Rapamycin screen: SILAC quantitative phosphoproteomics (two biological replicates)
# Format: cell-based, mouse
# Description: Two sets of large-scale, quantitative phospho-proteomics experiments were performed to fully define how mTOR-containing complexes signal to downstream effectors (FIG. 1A). The first SILAC experiment (rapamycin screen) was performed using growth factor-deprived TSC2−/− mouse embryonic fibroblasts (MEFs).
# Two populations of TSC2−/− cells were grown in parallel, one in conventional media (“light”) and the other in media containing [^13C6^15N2]lysine and [^13C6^15N4]arginine (“heavy”) (FIG. 1A and Table 5). […] We performed two biological replicates of this experimental design with cross-labeling (swapping the labeled state of the rapamycin-treated cells, Table 5), from which a total of 14,635 (FDR=0.25%) and 32,500 (FDR=0.28%) phosphopeptides were identified, respectively. These corresponded to identification of at least 4,484 and 6,832 unique phosphorylation sites on 1,615 and 1,866 proteins, respectively. The quantitation was highly accurate (Table 5) with 93.7% of the phosphoproteome changing less than 50% in abundance between the rapamycin-treated (light) and control (heavy) cells (second biological replicate experiment, Median Log2(H/L)=−0.02 and standard deviation Log2(H/L)=0.53, FIG. 1A). […] Note that the Rapamycin screen includes two biological replicates.
# Using this criteria, several hundred peptides (corresponding to 148 and 85 proteins respectively, in the two biological replicates, Table 11) were determined to contain rapamycin-sensitive phosphorylation sites. […] Note that there are two biological replicate experiments for the rapamycin screen (“Table 11 Rapa Replicate 1,” and “Table 11 Rapa Replicate 2,” respectively) and one Ku-0063749 replicate (“Table 11 Ku”). Treatment for the light and heavy cells in each experiment is described in FIG. 1C. We observed a similar distribution for the phosphopeptides in the […] biological replicate experiment and found 85 proteins (Table 11) that carried rapamycin-sensitive phosphorylation sites.
# The analysis identified 4,484 and 6,832 unique phosphorylation sites on 1,615 and 1,866 proteins from two biological replicate experiments, respectively, and achieved a high level of accuracy in quantitation (Table 5). […] A representative identification of the known rapamycin-sensitive phosphorylation sites on ribosomal protein S6 is shown in FIG. 1B.
# TSC2−/− MEFs were used in the rapamycin screen due to constitutive hyperactivation of mTORC1 signaling in this cell line. Cells were grown in light ([^12C6^14N2]Lys, [^12C6^14N4]Arg) and heavy ([^13C6^15N2]Lys, [^13C6^15N4]Arg) DMEM (Cambridge Isotope Labs), respectively. Both light and heavy DMEM were supplemented with 10% dialyzed FBS (Invitrogen). Cells were serum-deprived for 17 hours and cells were cultured inheavy media were treated with 20 nM rapamycin for two hours. We performed two biological replicates of this experimental design with cross-labeling (swapping the labeled state of the rapamycin-treated cells).
# [1] = downregulated phosphorylation, TSC2−/− MEFs, 20 nM rapamycin 2 h vs DMSO, second biological replicate
smiles,measurement,setting,value
CO[C@H]1C[C@@H]2CC[C@@H](C)[C@@](O)(O2)C(=O)C(=O)N2CCCC[C@H]2C(=O)O[C@H]([C@H](C)C[C@@H]2CC[C@@H](O)[C@H](OC)C2)CC(=O)[C@H](C)/C=C(\C)[C@@H](O)[C@@H](OC)C(=O)[C@H](C)C[C@H](C)/C=C/C=C/C=C/1C [rapamycin],Log2 Area (H/L) Ratio,"Ahctf1 phosphopeptide NGVSLFNS*PKTEQPSPVVHSFPHPELPEAFVGTPISNTSQR, SEQ ID NO: 1120, rapamycin screen",1.0661
same,Log2 Area (H/L) Ratio,"Ahctf1 phosphopeptide NGVSLFNSPK@T*EQPSPVVHSFPHPELPEAFVGTPISNTSQR^, SEQ ID NO: 1119, rapamycin screen",1.0661
same,Log2 Area (H/L) Ratio,"Ahctf1 phosphopeptide NGVSLFNSPK@TEQPSPVVHS*FPHPELPEAFVGTPISNTSQR^, SEQ ID NO: 1121, rapamycin screen",1.0661
same,Log2 Area (H/L) Ratio,"Ahnak phosphopeptide S*NS*FSDERAEFSAPSTPTGTLEFAGGDAK@, SEQ ID NO: 1147, rapamycin screen",1.0143
same,Log2 Area (H/L) Ratio,"Ahnak phosphopeptide S*NS*FSDEREFSAPSTPTGTLEFAGGDAK, SEQ ID NO: 1148, rapamycin screen",1.0143
same,Log2 Area (H/L) Ratio,"Ahnak phosphopeptide S*NS*FSDEREFSAPSTPTGTLEFAGGDAK, SEQ ID NO: 1149, rapamycin screen",1.0143
same,Log2 Area (H/L) Ratio,"Arhgap17 phosphopeptide LGEQGPEPGPT*PPQT*PT*PPST*PPLAK, SEQ ID NO: 1124, rapamycin screen",1.0618
same,Log2 Area (H/L) Ratio,"Arid1a phosphopeptide GPS*PSPVGS*PASVAQSR^, SEQ ID NO: 1151, rapamycin screen",1.0107
same,Log2 Area (H/L) Ratio,"Atxn2 phosphopeptide TS*PAGGTWSSVVSGVPR, SEQ ID NO: 1157, rapamycin screen",1.0015
same,Log2 Area (H/L) Ratio,"Atxn2 phosphopeptide TS*PAGGTWSSVVSGVPR^, SEQ ID NO: 1156, rapamycin screen",1.0015
same,Log2 Area (H/L) Ratio,"Azi1 phosphopeptide ANNAGASIYPTGPADPCPPASES*S*PEQWQSPEDKPQDIHSQGEAR, SEQ ID NO: 1138, rapamycin screen",1.0268
same,Log2 Area (H/L) Ratio,"Dlg5 phosphopeptide SS*SHLDPAATPHSTLQGSSAGTPEHPSVIDPLMEQDEGPGTPPAK@, SEQ ID NO: 1129, rapamycin screen",1.0498
same,Log2 Area (H/L) Ratio,"Eif4ebp1 phosphopeptide NS*PVAK@T*PPK@DLPAIPGVTSPTSDEPPM#QASQSQLPSSPEDK@, SEQ ID NO: 1143, rapamycin screen",1.0227
same,Log2 Area (H/L) Ratio,"Eif4ebp1 phosphopeptide NS*PVAKT*PPKDLPAIPGVTSPT*SDEPPMQASQSQLPSS*PEDK, SEQ ID NO: 1150, rapamycin screen",1.0129
same,Log2 Area (H/L) Ratio,"Eif4ebp2 phosphopeptide TVAISDAAQLPQDYCTT*PGGTLFSTT*PGGTRIIYDR, SEQ ID NO: 1137, rapamycin screen",1.0271
same,Log2 Area (H/L) Ratio,"Eif4ebp2 phosphopeptide TVAISDAAQLPQDYCTT*PGGTLFSTT*PGGTR^IIYDR^, SEQ ID NO: 1136, rapamycin screen",1.0271
same,Log2 Area (H/L) Ratio,"Erbb2ip phosphopeptide VGS*EHSLLDPPGK, SEQ ID NO: 1135, rapamycin screen",1.0307
same,Log2 Area (H/L) Ratio,"Erf phosphopeptide FPPST*PSEVLS*PTEDPRS*PPACSSSSSSLFSAVVAR, SEQ ID NO: 1154, rapamycin screen",1.0039
same,Log2 Area (H/L) Ratio,"Fam129a phosphopeptide HNLFEDNM#ALPSESVSS*LTDLK, SEQ ID NO: 1142, rapamycin screen",1.0232
same,Log2 Area (H/L) Ratio,"Fam129a phosphopeptide HNLFEDNMALPSES*VSSLTDLK@TAMGS*NQAS*PAR^R^, SEQ ID NO: 1152, rapamycin screen",1.0048
same,Log2 Area (H/L) Ratio,"Fam129a phosphopeptide HNLFEDNMALPSESVSSLT*DLK@TAMGS*NQAS*PAR^R^, SEQ ID NO: 1153, rapamycin screen",1.0048
same,Log2 Area (H/L) Ratio,"Hells phosphopeptide S*INYSELDQFPSELEK, SEQ ID NO: 1132, rapamycin screen",1.0332
same,Log2 Area (H/L) Ratio,"Hells phosphopeptide S*INYSELDQFPSELEK@, SEQ ID NO: 1133, rapamycin screen",1.0332
same,Log2 Area (H/L) Ratio,"Hells phosphopeptide S*INYSELDQFPSELEK@, SEQ ID NO: 1134, rapamycin screen",1.0332
same,Log2 Area (H/L) Ratio,"Ncaph2 phosphopeptide NGS*PVPVPDIS*QEPDGPALSGGEEDAEDGAEPLEVALEPAEPR^, SEQ ID NO: 1127, rapamycin screen",1.0598
same,Log2 Area (H/L) Ratio,"Ncaph2 phosphopeptide NGS*PVPVPDISQEPDGPALS*GGEEDAEDGAEPLEVALEPAEPR, SEQ ID NO: 1126, rapamycin screen",1.0598
same,Log2 Area (H/L) Ratio,"Ncaph2 phosphopeptide NGS*PVPVPDISQEPDGPALS*GGEEDAEDGAEPLEVALEPAEPR^, SEQ ID NO: 1125, rapamycin screen",1.0598
same,Log2 Area (H/L) Ratio,"Pbx1 phosphopeptide TAVTATNVSAHGSQANS*PSTPNSAGGY*PSPCYQPDR^R^, SEQ ID NO: 1128, rapamycin screen",1.054
same,Log2 Area (H/L) Ratio,"Pds5b phosphopeptide AES*PETSAVESTQST*PQK, SEQ ID NO: 1141, rapamycin screen",1.0246
same,Log2 Area (H/L) Ratio,"Pds5b phosphopeptide AES*PETSAVESTQST*PQK@, SEQ ID NO: 1139, rapamycin screen",1.0246
same,Log2 Area (H/L) Ratio,"Pds5b phosphopeptide AES*PETSAVESTQST*PQK@, SEQ ID NO: 1140, rapamycin screen",1.0246
same,Log2 Area (H/L) Ratio,"Phldb1 phosphopeptide WAAHGTS*PEDFSLTLGAR^, SEQ ID NO: 1118, rapamycin screen",1.068
same,Log2 Area (H/L) Ratio,"Ranbp10 phosphopeptide SQDS*YPGS*PSLSPR, SEQ ID NO: 1161, rapamycin screen",1.0009
same,Log2 Area (H/L) Ratio,"Ranbp10 phosphopeptide SQDSYPGS*PSLS*PR, SEQ ID NO: 1158, rapamycin screen",1.0009
same,Log2 Area (H/L) Ratio,"Ranbp10 phosphopeptide SQDSYPGS*PSLS*PR^, SEQ ID NO: 1159, rapamycin screen",1.0009
same,Log2 Area (H/L) Ratio,"Ranbp10 phosphopeptide SQDSYPGS*PSLS*PR^, SEQ ID NO: 1160, rapamycin screen",1.0009
same,Log2 Area (H/L) Ratio,"Ranbp10 phosphopeptide SQDSYPGS*PSLS*PR^, SEQ ID NO: 1162, rapamycin screen",1.0009
same,Log2 Area (H/L) Ratio,"Rb1 phosphopeptide DGEGPDNLEPACPLSLPLQGNHTAADMYLS*PLRS*PK, SEQ ID NO: 1123, rapamycin screen",1.0618
same,Log2 Area (H/L) Ratio,"Rb1 phosphopeptide DGEGPDNLEPACPLSLPLQGNHTAADMYLS*PLR^S*PK@, SEQ ID NO: 1122, rapamycin screen",1.0618
same,Log2 Area (H/L) Ratio,"Samhd1 phosphopeptide CDGS*PR^T*PPS*TPPATANLSADDDFQNTDLR^, SEQ ID NO: 1155, rapamycin screen",1.0027
same,Log2 Area (H/L) Ratio,"Shroom2 phosphopeptide SRS*S*PSTDHYSQEVPVEPNR, SEQ ID NO: 1144, rapamycin screen",1.0176
same,Log2 Area (H/L) Ratio,"Shroom2 phosphopeptide SRS*S*PSTDHYSQEVPVEPNR, SEQ ID NO: 1145, rapamycin screen",1.0176
same,Log2 Area (H/L) Ratio,"Shroom2 phosphopeptide SR^S*S*PSTDHYSQEVPVEPNR^, SEQ ID NO: 1146, rapamycin screen",1.0176
same,Log2 Area (H/L) Ratio,"Tox4 phosphopeptide LSTTPS*PTNS*LHEDGVDDFRR, SEQ ID NO: 1130, rapamycin screen",1.0342
same,Log2 Area (H/L) Ratio,"Tox4 phosphopeptide LSTTPS*PTNS*LHEDGVDDFRR, SEQ ID NO: 1164, rapamycin screen",1.0005
same,Log2 Area (H/L) Ratio,"Tox4 phosphopeptide LSTTPS*PTNS*LHEDGVDDFR^R^, SEQ ID NO: 1131, rapamycin screen",1.0342
same,Log2 Area (H/L) Ratio,"Tox4 phosphopeptide LSTTPS*PTNS*LHEDGVDDFR^R^, SEQ ID NO: 1163, rapamycin screen",1.0005
same,"Median (treated/ctrl) fold-change of phosphopeptide Eif4ebp1 S64, T69",[1],2.8 fold
same,"Median (treated/ctrl) fold-change of phosphopeptide Eif4ebp2 S65, T70",[1],39.1 fold
same,"Median (treated/ctrl) fold-change of phosphopeptide Eif4ebp2 T37, T46",[1],2.3 fold
same,"Median (treated/ctrl) fold-change of phosphopeptide LSSLRAS*TS*KSES*S*QK, RPS6 S240, S242, S246, S247",[1],4.5 fold
same,"Median (treated/ctrl) fold-change of phosphopeptide MNILSS*QS*PLHPSTLNAVIHR, Grb10 S421, S423 (isoform 3; S501/S503 in isoform 1)",[1],more than 27 fold and 27.3 fold
same,"Median (treated/ctrl) fold-change of phosphopeptide RLS*S*LRASTSK, RPS6 S235, S236",[1],30.5 fold
same,"Median (treated/ctrl) fold-change of phosphopeptide Rps6kb1 S441, T444, S447",[1],2.8 fold
same,"Median (treated/ctrl) fold-change of phosphopeptide S*LPVSVPVWAFK, Akt1s1 S184",[1],2.2 fold
same,"Median (treated/ctrl) fold-change of phosphopeptide SFS*KEVEER, Eif4g1 S1189",[1],2.8 fold
same,"Median (treated/ctrl) fold-change of phosphopeptide SRT*GS*ESSQTGASATSGR, Eif4b T420, S422",[1],4.3 fold
same,"Median (treated/ctrl) fold-change of phosphopeptide TGS*ESS*QTGASATSGR, Eif4b S422, S425",[1],4.6 fold
same,"Median (treated/ctrl) fold-change of phosphopeptide TTS*FAESCKPVQQPSAFGSMK, Gsk3β S9",[1],approximately 3.3 fold and 3.3 fold
same,"Median (treated/ctrl) fold-change of phosphopeptide ULK1 S747, S757, T763",[1],4 fold and 4.1 fold
same,"Median (treated/ctrl) fold-change of triply phosphorylated Grb10 peptide T76, S96, S104",[1],5.4 fold
same,decrease of 4EBP1 T36/T45 phosphorylation after rapamycin treatment,rapamycin screen,20%
